Source: patent US20090105207A1, “Copper (1) Complex” (priority 2006, published 2009)
Values belong to the molecule of their own block, whether it stands above or below them.

Legend:
rats [1] = test: Bioavailability studies on rats (liver and kidney functions, blood picture, lipid profile); format: in vivo; settings: for Lipid profile: all groups
Source text: The study on rats included five groups, group 1 control, 2 receiving cu, group.2 pyrazinic, group 3 complex with large dose, & group 5 receiving complex with small dose.

fatigue = test: Clinical trials for treatment of fatigue in humans; format: in vivo
[2] = tested on: stem cells, CD4 and CD8 cells; test: In vivo stem cell, CD4 and CD8 counts before and during medication; settings: before and at regular intervals of medication
Source text: We hypothesized that the drug may have a role in stimulating the stem cells present in the various organs to differentiate. […] In vivo we measured the stem cell count together with CD8 and CD4 cells before, and at regular intervals of medication.

[3] = Solubility of the complex in solvents; format: physicochemical
Source text: Solubility: the complex is insoluble in non polar solvents, e.g. benzene, carbon tetrachloride, etc., and insoluble in polar solvents: water, methanol, ethanol, acetone, but soluble in these solvents upon heating in inert atmosphere, to prevent oxidation.

[4] = Stability of the solid complex; format: physicochemical
rats [5] = test: Toxicity of the complex (LD50, mortality within 24 hrs); format: in vivo
Protocol: Seventy two rats (250+/−2.0 g b.wt) were randomly located into 12 groups of 6 rats each
Mortality in each group were recorded within 24 hrs. The LD50 was calculated according to Behecens and Karbere (1970)

[6] = tested on: male infertility (sperm count, motility); test: Male infertility study, 20 patients; format: in vivo, human
[7] = tested on: muscle weakness (muscle dystrophies, post stroke weakness); test: Clinical trials for treatment of weakness of muscles; format: in vivo, human
Source text: The complex used in treatment of muscle weakness for different underlying causes (muscle dystrophies post stroke weakness). […] When the patient reaches the optimum dose, onset of improvement in muscle power is observed within hours of drug intake.

dilated Cardiomyopathy = test: Clinical trials in cardiomyopathy; format: in vivo, human; settings: clinically and in ECHO cardiographic measurements
Source text: Improvement is shown both clinically and in the ECHO cardiographic measurements.

[8] = complex at large and small dose

Lipid profile (rats [1]): didn't show significant difference
Liver and kidney functions versus control group (rats [1]; [8]): no significant difference
Molecule: O=C(O)c1cnccn1 [pyrazinic, pyrazinic acid, reference compound]

Molecule: [CuCI (pyrazinic acid) 2]. 2H2O [complex]
Lipid profile (rats [1]): didn't show significant difference
Liver and kidney functions versus control group (rats [1]; [8]): no significant difference
Lymphocytic count (complete blood picture) (rats [1]; complex at large and small dose, not exceeding the normal range): increase of lymphocytic count
Agonizing fatigue in Parkinsonism, myositis, disseminated sclerosis (fatigue): improves markedly
Effect in all types of fatigue (fatigue): relieved the muscle pain, increased the physical activity and productivity
CD4/CD8 [2]: no disturbance
CD4 and CD8 number [2]: increase
Stem cell count [2]: significant decrease
Solubility in non polar solvents ([3]; e.g. benzene, carbon tetrachloride): insoluble
Solubility in polar solvents ([3]; water, methanol, ethanol, acetone): insoluble
Solubility in polar solvents upon heating ([3]; water, methanol, ethanol, acetone, heating in inert atmosphere): soluble
Stability [4]: sufficiently stable when well-dried
LD50 (intrapperitoneally) (rats [5]; intraperitoneal): 128 mg/kg
LD50 (oral) (rats [5]; oral): 1104.17 mg/kg
Sperm motility ([6]; all cases): significant improvement
Healthy babies, azospermic patients ([6]; among the seven responding azospermic patients): two of them got healthy babies
Healthy babies, oligospermia ([6]; oligospermia cases): four cases got also healthy babies
Sperm count in azospermic patients ([6]; seven out of nine patients, within 6 weeks of treatment): 1.5-3 millions/hpf
Sperm count in oligospermia ([6]; within 1 month of treatment): doubling of the count
Clinical improvement in DMS patients ([7]; affected by age, weight and degree of dystrophy): dose dependant
Onset of improvement in muscle power ([7]; at optimum dose, after drug intake): within hours
Cases improved, dilated cardiomyopathy due to other causes (dilated Cardiomyopathy): 80%
Improvement of dilated cardiomyopathy secondary to Duchenne muscle dystrophy (dilated Cardiomyopathy): improved all cases
